Assay results: patent US20170312253A1 (The Third Affiliated Hospital, Third Military Medical …, priority 2014, published 2017)

Tests used:
[1] = tested on: APPswe/PS1DE9 (AD) transgenic mice; test: Y-maze (spontaneous alternation and novel arm probe test); format: in vivo; details: AD mice vs control group
Description: (§1) APPswe/PS1DE9 (AD) transgenic mice were purchased from Jackson Laboratory, USA (No. 005864), raised in the SPF grade animal house of The Third Affiliated Hospital of The Third Military Medical University. All the processes and correlated experiments applied to the mice were approved and filed with the Animal Ethics Committee of the Third Military Medical University. […] Alternatively, the daily dose for the prophylactic group may be 6.4 mg/kg, and the daily dose for the treatment group may be 12.8 mg/kg. Administration from 3-month old to 9-month old is the prophylactic test, and administration from 9-month old to 12-month old is the therapeutic test After reaching a stated time, the mice in each group received behavioral tests according to the method in the follows. Three mice in each group were taken for Golgi staining. The remaining mice were overly anaesthetized to receive brain anatomy. One side of the cerebral hemisphere was frozen and then for a biochemical analysis, and the other side of the cerebral hemisphere was fixed with 4% paraform for a histological analysis. All the mice in each group received behavioral tests, including a water maze, Y-maze and open field test. Water maze test includes four days of platform test and the subsequent probe test. The entire process was recorded by video, and analyzed with an image analysis software (ANY-maze, Stoelting). In the platform test, the escape path length and escape latency were measured and calculated. In the probe test, the time in each quadrant and the time across platform were measured. The spontaneous alternation test and novel arm probe test were carried out in the Y-maze. In the spontaneous alternation test, the mouse was free running In the maze for 5 min. Alternation is defined as entering the three arms connected with each other continuously. […] In the open field test, the mouse was put in the center of an open field for 3 min, and its path was recorded by a tracking system (Limelight, ActiMetrics). At the same time, the numbers of rearing, grooming, defecation and urination of the mouse were recorded.

[2] = tested on: α-secretase; test: α-secretase activity in brain tissues (kit); format: in vivo; details: AD mice brain
Description: (§2) APPswe/PS1DE9 (AD) transgenic mice were purchased from Jackson Laboratory, USA (No. 005864), raised in the SPF grade animal house of The Third Affiliated Hospital of The Third Military Medical University. All the processes and correlated experiments applied to the mice were approved and filed with the Animal Ethics Committee of the Third Military Medical University. […] Alternatively, the daily dose for the prophylactic group may be 6.4 mg/kg, and the daily dose for the treatment group may be 12.8 mg/kg. Administration from 3-month old to 9-month old is the prophylactic test, and administration from 9-month old to 12-month old is the therapeutic test After reaching a stated time, the mice in each group received behavioral tests according to the method in the follows. Three mice in each group were taken for Golgi staining. The remaining mice were overly anaesthetized to receive brain anatomy. One side of the cerebral hemisphere was frozen and then for a biochemical analysis, and the other side of the cerebral hemisphere was fixed with 4% paraform for a histological analysis.
(§3) After homogenating the frozen brain tissues, extraction was conducted with TBS, SDS and formic acid successively. The TBS, SDS and formic acid extracts represent soluble Aβ, loosen senile plaques and compact senile plaques, respectively. […]

[3] = tested on: APPswe/PS1DE9 (AD) transgenic mice; test: Morris water maze; format: in vivo; details: prophylactic and therapeutic test, vs control group
Description: as §1, with “The remaining mice were overly anaesthetized to receive brain anatomy. One side of the cerebral hemisphere was frozen and then for a biochemical analysis, and the other side of the cerebral hemisphere was fixed with 4% paraform for a histological analysis. All the mice in each group received behavioral tests, including a water maze, Y-maze and open field test. Water maze test includes four days of platform test and the subsequent probe test.” left out, “measured.” for “measured. The spontaneous alternation test and novel arm probe test were carried out in the Y-maze. In the spontaneous alternation test, the mouse was free running In the maze for 5 min. Alternation is defined as entering the three arms connected with each other continuously.”

[4] = tested on: LRP; test: Western blot of Aβ metabolizing enzymes in brain: LRP; format: in vivo; details: AD mice brain
Description: (§4) APPswe/PS1DE9 (AD) transgenic mice were purchased from Jackson Laboratory, USA (No. 005864), raised in the SPF grade animal house of The Third Affiliated Hospital of The Third Military Medical University. All the processes and correlated experiments applied to the mice were approved and filed with the Animal Ethics Committee of the Third Military Medical University. […] Alternatively, the daily dose for the prophylactic group may be 6.4 mg/kg, and the daily dose for the treatment group may be 12.8 mg/kg. […]
(§5) The enzymes related with Aβ formation and degradation their molecule levels, the levels of hyperphosphprylated Tau proteins, and the levels of synaptic plasticity correlated proteins were all detected with Western blot. […] The blotting was detected with the following antibodies: APP C terminal antibody (171610, Millipore), BACE1 antibody (Millipore), Aβ antibody (6E10, Abcam), Nepriiysin antibody (Millipore), RAGE antibody (Millipore), LRP antibody (5A6, Calbiochem), IDE antibody (epitomics), phosphorylated Tau protein antibody, including pS396 (Signalway), pT231 (Signalway), pS199 (epitomics), pS262 (Abcam), SNAP25 antibody (Millipore), Synaptophysin antibody (Millipore), Synapsin I antibody (Millipore), VAMP1 antibody (Millipore), PSD95 antibody (Millipore), F-actin antibody (Actin) (Sigma-Aldrich). […]

[5] = tested on: NEP; test: Western blot of Aβ metabolizing enzymes in brain: NEP; format: in vivo; details: AD mice brain
Description: as §4, §5

[6] = tested on: Aβ deposition in the brain; test: Quantitative analysis of Aβ deposition in the brain (Congo red, 6E10); format: in vivo; details: AD mice, Congo red staining and 6E10 immunostaining
Description: as §2
The compact Aβ plaque was stained and labelled with Congo red. […] The Aβ plaques in the neopallium and hippocampal area were quantitatively analyzed with ImageJ analysis software to obtain the area percentage of the Aβ plaque and the quantities in a unit area.

[7] = tested on: Aβ 40, Aβ 42; test: ELISA of Aβ 40, Aβ 42 in brain extracts (TBS, SDS, FA); format: in vivo; details: AD mice, 2% SDS and FA extracts
Description: as §2, §3

[8] = tested on: ischemia-reperfused elderly rats; details: cited from earlier work
[9] = tested on: synapse associated proteins; test: Western blot of synapse associated proteins; format: in vivo; details: AD mice vs control group
Description: as §4, §5

[10] = tested on: Tau protein; test: Western blot of phosphorylated Tau protein; format: in vivo; details: AD mice
Description: as §4, §5

[11] = tested on: neural inflammatory reactions; test: Neural inflammatory reaction in brain (ELISA of IL-6, IL-1β, INF-γ, TNF-β); format: in vivo; details: AD mice
Description: as §2, §3

activity of α-secretase [2]: increase of the activity of α-secretase
SMILES: CC1=NN(c2ccccc2)C(=O)C1 [Edaravone, 3-methyl-1-phenyl-2-pyrazolin-5-one]
Y-maze alternation proportion [1]: also significantly increased | Y-maze arm entry [1]: significantly higher than in the control group | Y-maze proportion of the novel arm entry [1]: significantly increased | Morris water maze escape time [3]: reduction of escape time | Morris water maze times across platform [3]: increase in times across platform | influence on LRP [4]: no influence | influence on NEP [5]: no influence | Aβ deposition in the brain, of the control group [6]: about 50% | Aβ 40, Aβ 42 levels in brain extracts [7]: significantly reduce the levels of Aβ at different, aggregation states | JNK-c-Jun pathway [8]: suppress the JNK-c-Jun pathway | glutathione peroxidase activity [8]: reduce the glutathione peroxidase activity | neuronal apoptosis [8]: decrease the neuronal apoptosis | expressions of the synapse associated proteins [9]: much higher than in the control group | phosphorylation level of Tau protein [10]: reduce the phosphorylation level of Tau protein at multiple pathological sites | neural inflammatory reaction level in the brain ([11]; p.o.): significantly reduced, too | neural inflammatory reaction in the brain ([11]; prophylactic and therapeutic test): all reduced significantly
